Experiments:
bile secretion [1] = test: Bile secretion test in rats; assay type: in vivo, male Wistar rats; settings: oral; for Bile volume secreted after administration: rat, volume in 1 h before administration = 100%; for Volume of bile secreted relative to one hour before administration: rats
Description: Male Wistar rats weighing 200-210 g were fasted overnight and laparotomized under urethane anesthesia(Subcutaneous injection at a dose of 1.5 g/kg). A polyethylene tube was inserted into the common bile duct. The bile was collected for one hour from 30 minutes after the operation. Subsequently, the animals were given orally the test drugs, each 50 mg of which was suspended in 1 ml of 5% gum arabic aqueous solution. The bile was collected for 5 hours after the drug administration. The volume of the bile secreted at hourly intervals after the drug administration was expressed in %, defining the volume secreted for one hour before the drug administration as 100%, as shown in Table 1.
About 500 mg of p-menth-1-ene-8,9-diol were weighed accurately, and suspended in 10 ml of 5% gum arabic aqueous solution. […] Male rats of Wistar strain weighing 200 g were fasted overnight, anesthetized by subcutanous injection of 0.3 g of urethane and laparotomized. A polyethylene tube was inserted into the common bile duct. The bile was collected for one hour from 30 minutes after the operation. […]
About 500 mg of 9-acetoxy-p-menth-1-en-8-ol was weighed accurately and suspended in 10ml of 5% gum arabic aqueous solution. […] Male rats of Wistar strain weighing about 210 g were fasted overnight and anesthetized by subcutaneous injection of 0.32 g of urethane and then laparotomized. A polyethylene tube was inserted into the common bile duct, and the bile secreted through the duct was collected for one hour from 30 minutes after the operation. Subsequently, the choleretic of the present invention was administered orally in a volume of 1.05 ml (250 mg/kg).

bile secretion [2] = test: Bile secretion test in dogs; assay type: in vivo, male mongrel dogs; settings: dog, into duodenum, volume in 1 h before administration = 100%
Description: Male mongrel dogs weighing approximately 8 kg were anesthetized with intravenous injection of […] of pentobarbital and further with subcutaneous injection of urethane at a dose of 1.0 g/kg and laparotomized. One canula was inserted into the common bile duct and directed to the liver for collection of the bile, and the other canula was inserted into the duodenum for the drug administration. The cholecystic duct was ligated and the gallbladder bile was aspirated with an injection syringe. The operation was finished by suture of the peritoneum. The bile was collected for one hour from 30 minutes after the operation. The animals were given the test drugs, each 50 mg of which was suspended in 1 ml of 5% gum arabic aqueous solution, through the canula for the drug administration. The bile was collected at hourly intervals for 6 hours after the drug administration. Defining the volume of the bile secreted for one hour before the drug administration as 100%, the volume secreted at hourly intervals after the drug administration was expressed in %, as shown in Table 2.
The mean volume secreted for one hour before the drug administration was 1798 μl.
This suspension was used as a choleretic of the present invention. A male mongrel dog weighing 8.8 kg was fasted overnight and anesthetized by subcutaneous injection of 1.0 mg/kg of urethane and laparotomized. One canula was inserted into the common bile duct and directed to the liver for collection of the bile, and the other canula was also inserted into the duodenum for the drug administration. Subsequently, the cholecystic duct was ligated and the gallbladder bile was aspirated with an injection syringe. The operation was finished after suturing the peritoneum. The bile was collected for one hour from 30 minutes after the operation, and subsequently, 44 ml of the test drug prepared above (250 mg/kg) was given through the canula for the drug administration. The volume of the bile secreted for the first, second and third one hour after the drug administration were 2.2, 2.1 and 1.9 times larger, respectively, than that secreted for one hour before the drug administration.
About 2.5 g of 9-propionyloxy-p-menth-1-en-8-ol was weighed accurately and suspended in 50 ml of 5% gum arabic aqueous solution. This suspension was used as a choleretic of the present invention. A male mongrel dog weighing 7.6 kg was fasted overnight and anesthetized by subcutaneous injection of 1.0 mg/kg of urethane and then laparotomized. One canula was inserted into the common bile duct and directed to the liver for collection of the bile, and the other canula into the duodenum for the drug administration. Subsequently, the cholecystic duct was ligated and the gallbladder bile was aspirated with an injection syringe. The operation was finished by suturing the peritoneum. The bile was collected for one hour from 30 minutes after the operation, and 50 ml (330 mg/kg) of the test drug prepared above was administered through the canula for the drug administration. The volume of the bile secreted for the first, second and third one hour after the drug administration was 3.2, 5.0 and 4.7 times larger, respectively, than that secreted for one hour before the drug administration.

[3] = Acute toxicity test in mice; settings: mouse, in vivo, oral, parentheses: 95% confidence limit
Description: (§1) The test drugs were suspended in 5% gum arabic aqueous solution to make 50 mg/ml, and given orally male mice of ddY strain weighing 18-22 g and male rats of Wistar strain weighing 95-120 g. The LD50 values were calculated from the mortality of the animals that ensued during the 72 hours following the drug administration

[4] = Acute toxicity test in rats; design: species or system male rats of Wistar strain; settings: rat, in vivo, oral, parentheses: 95% confidence limit
Description: as §1

[5] = tested on: sleeping time induced by hexobarbital; test: Effects on the sleeping time induced by hexobarbital (metabolism function of the liver); assay type: in vivo, male rats of Wistar strain; settings: rats, 250 mg/kg oral once daily for a week; hexobarbital sodium 100 mg/kg i.p.; control 17.1 ± 0.9
Description: About 500 mg of the test drugs were weighed accurately and suspended in 2 ml of 5% gum arabic aqueous solution. Ten male rats of Wistar strain were used per group and given orally the test drugs prepared above in a volume of 0.1 ml/100 g body weight (equivalent to 250 mg/kg), once daily (at 8.30-9.00 a.m.), for a week. The animals were fasted overnight after the last administration of the test drugs. Subsequently, 10% hexobarbital sodium aqueous solution was injected intraperitoneally in a volume of 0.1 ml (equivalent to 100 mg/kg) and the sleeping time was measured. The animals were regarded as sleeping when the loss of righting reflex persist for more than 30 seconds.

CC(=O)OCC(C)(O)C1CC=C(C)CC1 (stereo not shown) [9-Acetoxy-p-menth-1-en-8-ol, 9-acetoxy-p-menth-1-en-8-ol]
Bile volume secreted after administration (bile secretion [1]; 100 mg/kg, 0-1 hr): 125%
Bile volume secreted after administration (bile secretion [1]; 100 mg/kg, 1-2 hr): 109%
Bile volume secreted after administration (bile secretion [1]; 100 mg/kg, 2-3 hr): 96%
Bile volume secreted after administration (bile secretion [1]; 100 mg/kg, 3-4 hr): 82%
Bile volume secreted after administration (bile secretion [1]; 100 mg/kg, 4-5 hr): 75%
Bile volume secreted after administration (bile secretion [1]; 310 mg/kg, 0-1 hr): 196%
Bile volume secreted after administration (bile secretion [1]; 310 mg/kg, 1-2 hr): 172%
Bile volume secreted after administration (bile secretion [1]; 310 mg/kg, 2-3 hr): 145%
Bile volume secreted after administration (bile secretion [1]; 310 mg/kg, 3-4 hr): 124%
Bile volume secreted after administration (bile secretion [1]; 310 mg/kg, 4-5 hr): 114%
Bile volume secreted after administration (bile secretion [1]; 930 mg/kg, 0-1 hr): 218%
Bile volume secreted after administration (bile secretion [1]; 930 mg/kg, 1-2 hr): 203%
Bile volume secreted after administration (bile secretion [1]; 930 mg/kg, 2-3 hr): 172%
Bile volume secreted after administration (bile secretion [1]; 930 mg/kg, 3-4 hr): 154%
Bile volume secreted after administration (bile secretion [1]; 930 mg/kg, 4-5 hr): 130%
Volume of bile secreted relative to one hour before administration (bile secretion [1]; 250 mg/kg, first hour): 1.9 times
Volume of bile secreted relative to one hour before administration (bile secretion [1]; 250 mg/kg, second hour): 1.7 times
Volume of bile secreted relative to one hour before administration (bile secretion [1]; 250 mg/kg, third hour): 1.4 times
Bile volume secreted after administration (bile secretion [2]; 310 mg/kg, 0-1 hr): 395%
Bile volume secreted after administration (bile secretion [2]; 310 mg/kg, 1-2 hr): 457%
Bile volume secreted after administration (bile secretion [2]; 310 mg/kg, 2-3 hr): 534%
Bile volume secreted after administration (bile secretion [2]; 310 mg/kg, 3-4 hr): 464%
Bile volume secreted after administration (bile secretion [2]; 310 mg/kg, 4-5 hr): 277%
Bile volume secreted after administration (bile secretion [2]; 310 mg/kg, 5-6 hr): 157%
LD50 at 72 h [3]: 1000 to 2000 mg/kg
LD50 at 72 h [4]: 8300 mg/kg
Sleeping time [5]: 18.1 ± 1.5 min

CC1=CCC(C(C)(O)CO)CC1 (stereo not shown) [p-Menth-1-ene-8,9-diol, p-menth-1-ene-8,9-diol]
Bile volume secreted after administration (bile secretion [1]; 80 mg/kg, 0-1 hr): 155%
Bile volume secreted after administration (bile secretion [1]; 80 mg/kg, 1-2 hr): 118%
Bile volume secreted after administration (bile secretion [1]; 80 mg/kg, 2-3 hr): 101%
Bile volume secreted after administration (bile secretion [1]; 80 mg/kg, 3-4 hr): 93%
Bile volume secreted after administration (bile secretion [1]; 80 mg/kg, 4-5 hr): 85%
Bile volume secreted after administration (bile secretion [1]; 250 mg/kg, 0-1 hr): 213%
Bile volume secreted after administration (bile secretion [1]; 250 mg/kg, 1-2 hr): 170%
Bile volume secreted after administration (bile secretion [1]; 250 mg/kg, 2-3 hr): 122%
Bile volume secreted after administration (bile secretion [1]; 250 mg/kg, 3-4 hr): 99%
Bile volume secreted after administration (bile secretion [1]; 250 mg/kg, 4-5 hr): 89%
Bile volume secreted after administration (bile secretion [1]; 750 mg/kg, 0-1 hr): 218%
Bile volume secreted after administration (bile secretion [1]; 750 mg/kg, 1-2 hr): 199%
Bile volume secreted after administration (bile secretion [1]; 750 mg/kg, 2-3 hr): 175%
Bile volume secreted after administration (bile secretion [1]; 750 mg/kg, 3-4 hr): 153%
Bile volume secreted after administration (bile secretion [1]; 750 mg/kg, 4-5 hr): 139%
Volume of bile secreted relative to one hour before administration (bile secretion [1]; 250 mg/kg, first hour): 2.1 times
Volume of bile secreted relative to one hour before administration (bile secretion [1]; 250 mg/kg, second hour): 1.7 times
Volume of bile secreted relative to one hour before administration (bile secretion [1]; 250 mg/kg, third hour): 1.2 times
Bile volume secreted after administration (bile secretion [2]; 250 mg/kg, 0-1 hr): 176%
Bile volume secreted after administration (bile secretion [2]; 250 mg/kg, 1-2 hr): 168%
Bile volume secreted after administration (bile secretion [2]; 250 mg/kg, 2-3 hr): 122%
Bile volume secreted after administration (bile secretion [2]; 250 mg/kg, 3-4 hr): 65%
Bile volume secreted after administration (bile secretion [2]; 250 mg/kg, 4-5 hr): 41%
LD50 at 72 h [3]: 1800 mg/kg
Sleeping time [5]: 17.8 ± 0.3 min

Reference: patent publication US4083994A, “Choleretics” (Hisamitsu Pharmaceutical Co., Inc., priority 1975, dated 1978)
